Assay results taken from US5214034A, “Catechol derivatives, and preventive and remedial preparations for regressive disorders in the central nervous system containing the same” (priority 1986, dated 1993).
Like-named read-outs stand apart in the source and are kept apart here.

How the values were obtained:
[1] = system: production and secretion of NGF in brain astroglial cells; test: Promoting activity for the production and secretion of NGF in brain astroglial cells of mouse (ELISA)
Description: The experiment was performed by inducing the astroglial cells from mouse forebrain to culture system according to the procedures of S. Furukawa et al. which is described in Biochem. Biophys. Res. Commun., 136, 57-63 (1986).
That is, forebrains of 8-day old mice were dissected out and cut into small pieces. […] Cells and cell clamps were recovered by centrifugation at 200 xg for 5 minutes. They were cultured in Dulbecco modified Eagle's medium (a product of Gibco Co. hereinafter abbreviated as DMEM) containing 10% of fetal calf serum, […] of penicillin, and 50 μg/ml of streptomycin, for 10 to 14 days with medium changes every 3 days. After completing confluency, the cells were dissociated by trypsin treatment and recultured in new culture flasks. This procedure was repeated further twice and more. […] The cells will hereinafter be referred to as astroglial cells.
Astroglial cells were innoculated in 24-well plates having a well surface area of 2.1 cm^2 (a product of Falcon Co.) at a cell density of about 3×10^4 cells/well and cultured for 3 days in DMEM . medium supplemented with 10% of fetal calf serum. After completing confluency about 10^7 cells/well), the medium was changed to DMEM medium (0.5 ml/well) supplemented with 0.5% of bovine serum albumin ((fraction V) and cultured for 3 days. The culture was further continued with medium changes every 3 days. After cells were practically synchronized in the quiscent stage, the medium was changed to 0.5 ml of the medium supplemented with 0.5% of bovine serum albumin and containing a prescribed concentration of test sample as illustrated in Tables. […] Data are expressed as fold increase in NGF content over that in the absence of the test sample. […] Data are presented as means ±SE of four determinations.

[2] = system: production and secretion of NGF on L-M cells; test: Promoting action for the production and secretion of NGF on L-M cells of mouse (ELISA); type: cell-based; conditions: Mus musculus
Source text: Catecholamines have also been found in a relatively high concentration to accelerate these functions without being mediated by adrenergic receptors [Y. Furukawa et al., J. Biol. Chem., 261, 6039-6047 (1986)].
The compound having a high activity in Table 1, that is, the catechol derivative having a n-alkyl group in the 3 or 4 position on the ring has been observed an acute cell toxicity in higher concentrations. The toxicity was considered the result of two hydroxyl groups in the catechol structure. Then the hydroxyl groups were esterified or etherified and the resulting derivative was examined the effect on the activity for the production and secretion of NGF.
The experiment was performed according to the procedures of Y. Furukawa et al. which is described in J. Bis Chem., 261, 6039-6047 (1986).
The medium was cultured for 3 days at a temperature of 37° C. After completing the confluency (about 10^6 cells/well), the medium was changed to Medium 199 (0.5 ml/well) containing 0.5% bovine serum albumin (Fraction V, a product of Armour Co.). The sample of the derivative is contained in the medium at a prescribed concentration as illustrated in the Tables.

[3] = 24 h, read-out: Ratio of NGF increase, Table 3, 0.10 mM, 24 hours, mean ± SE of four determinations
[4] = 24 h, read-out: Ratio of NGF increase, Table 3, 0.25 mM, 24 hours, mean ± SE of four determinations
[5] = 24 h, Table 1, 0.03 mM, 24 hours, mean ± SE of four determinations, read-out: Ratio of NGF increase
[6] = 24 h, Table 1, 0.10 mM, 24 hours, mean ± SE of four determinations, read-out: Ratio of NGF increase
[7] = 24 h, Table 2, 0.03 mM, 24-hr culture, read-out: Ratio of NGF increase, 24-hr culture
[8] = 24 h, Table 2, 0.15 mM, 24-hr culture, read-out: Ratio of NGF increase, 24-hr culture
[9] = 48 h, Table 2, 0.03 mM, 48-hr culture, read-out: Ratio of NGF increase, 48-hr culture
[10] = 48 h, Table 2, 0.15 mM, 48-hr culture, read-out: Ratio of NGF increase, 48-hr culture
[11] = 24 h, read-out: Ratio of NGF increase, 24-hr culture, Table 4, 0.10 mM, 24-hr culture
[12] = 24 h, read-out: Ratio of NGF increase, 24-hr culture, Table 4, 0.25 mM, 24-hr culture
[13] = 48 h, read-out: Ratio of NGF increase, 48-hr culture, Table 4, 0.10 mM, 48-hr culture
[14] = 48 h, read-out: Ratio of NGF increase, 48-hr culture, Table 4, 0.25 mM, 48-hr culture
[15] = 24 h, read-out: Ratio of NGF increase
[16] = 24 h, read-out: Ratio of NGF increase, 24-hr culture
[17] = 48 h, read-out: Ratio of NGF increase, 48-hr culture

Compound	fold induction at 100 µM [1, 3]	fold induction at 250 µM [1, 4]	fold induction at 30 µM [2, 5]	fold induction at 100 µM [2, 6]	fold induction at 30 µM [2, 7]	fold induction at 150 µM [2, 8]	fold induction at 30 µM [2, 9]	fold induction at 150 µM [2, 10]	other results
CC(C)c1ccc(O)c(O)c1 [R = Two H, R1 = H, R2 = Isopropyl]	34.6 ± 1.62	42.9 ± 2.93	6.17 ± 0.44	5.9 ± 0.41	–	–	–	–	–
COc1ccc(C)cc1O [4-Methylguaiacol, reference compound]	–	–	–	–	1.09 ± 0.06	1.03 ± 0.05	1.1 ± 0.07	1 ± 0.09	–
CC(=O)Oc1ccc(C)cc1OC(C)=O [R = Two acetyl, R1 = H, R2 = Methyl]	–	–	–	–	4.92 ± 0.94	4.21 ± 0.4	7.71 ± 0.86	6.27 ± 0.75	fold induction at 100 µM [1, 11]: 49.8 ± 6.44; fold induction at 250 µM [1, 12]: 41.2 ± 7.32; fold induction at 100 µM [1, 13]: 77.3 ± 6.52; fold induction at 250 µM [1, 14]: 82.4 ± 7.24
CC(C)(C)c1ccc(O)c(O)c1 [R = Two H, R1 = H, R2 = tert-Butyl]	18.5 ± 1.5	18.8 ± 2.92	3.45 ± 0.35	–	–	–	–	–	–
Cc1c(C(C)(C)C)ccc(O)c1O [R = Two H, R1 = Methyl, R2 = tert-Butyl]	9.65 ± 2.42	24.2 ± 2.73	2.82 ± 0.14	3.65 ± 0.39	–	–	–	–	–
Oc1ccccc1O [R = Two H, R1 = H, R2 = H, Catechol]	–	–	–	–	–	–	–	–	fold induction at 100 µM [1, 15]: 2.51 ± 0.07; fold induction at 250 µM [1, 15]: 1.92 ± 0.09; fold induction at 30 µM [2, 15]: 1.03 ± 0.04; fold induction at 100 µM [2, 15]: 1.81 ± 0.09; fold induction at 30 µM [2, 16]: 1.15 ± 0.04; fold induction at 150 µM [2, 16]: 1.93 ± 0.12; fold induction at 30 µM [2, 17]: 1.31 ± 0.09; fold induction at 150 µM [2, 17]: 1.79 ± 0.2
CCCCc1ccc(O)c(O)c1C [R = Two H, R1 = Methyl, R2 = n-Butyl]	49.8 ± 3.65	76.2 ± 6.64	6.87 ± 0.6	7.73 ± 0.53	–	–	–	–	–
Cc1ccc2oc(=O)c(=O)oc2c1 [CO.CO-, R1 = H, R2 = Methyl, 6-methyl-1,4-benzodioxine-2,3-dione]	–	–	–	–	4.24 ± 0.58	4.62 ± 0.61	7.6 ± 0.43	7.03 ± 0.69	fold induction at 100 µM [1, 11]: 47.2 ± 3.98; fold induction at 250 µM [1, 12]: 50.6 ± 4.74; fold induction at 100 µM [1, 13]: 69.6 ± 3.25; fold induction at 250 µM [1, 14]: 70.2 ± 5.37
CCCc1ccc(O)c(O)c1C [R = Two H, R1 = Methyl, R2 = n-Propyl]	41.3 ± 2.55	61.6 ± 4.62	6.34 ± 0.46	7.25 ± 0.32	–	–	–	–	–
Cc1ccc2oc(=O)oc2c1 [CO-, R1 = H, R2 = Methyl, 4-methyl-o-phenylenecarbonate]	–	–	–	–	4.39 ± 0.62	4.82 ± 0.55	7.54 ± 0.72	6.99 ± 0.52	fold induction at 100 µM [1, 11]: 52.4 ± 5.29; fold induction at 250 µM [1, 12]: 44.9 ± 4.25; fold induction at 100 µM [1, 13]: 73.4 ± 4.25; fold induction at 250 µM [1, 14]: 78.3 ± 6.5
CCC(C)c1ccc(O)c(O)c1 (stereo not drawn) [R = Two H, R1 = H, R2 = sec-Butyl]	36.3 ± 3.49	70.1 ± 5.75	9.23 ± 1.41	14.7 ± 1.87	–	–	–	–	–
CCCCc1cccc(O)c1O [R = Two H, R1 = n-Butyl, R2 = H]	56.2 ± 1.87	93.3 ± 1.65	8.33 ± 0.52	–	–	–	–	–	–
CCc1ccc(O)c(O)c1CC [R = Two H, R1 = Ethyl, R2 = Ethyl]	16.7 ± 1.84	23.6 ± 1.9	3.01 ± 0.2	3.24 ± 0.19	–	–	–	–	–
